{"source": "patent US12516070B2", "about": "“Fused ring derivatives and use thereof in pharmacy” (priority 2020, dated 2026)", "key": {"[1]": {"system": "influenza A virus A/PR/8/34 (H1N1)", "assay": "Influenza virus cytopathic effect (CPE) assay, A/PR/8/34 (H1N1)", "type": "cell-based", "conditions": "MDCK cells, 5 days, CCK8, read-out: EC50, inhibitory activity against influenza A virus A/PR/8/34 (H1N1)"}, "[2]": {"system": "influenza A virus strain A/PR8/34", "assay": "Drug efficacy assay in mice, treatment model of influenza A", "type": "in vivo, mice (BALB/c)", "conditions": "30 mpk BID intragastric, day 2 to day 8"}, "[3]": {"type": "in vivo, Beagle dogs", "conditions": "Dog, PO, 1 mpk of 8B; concentration of 7B detected", "experimental": "(§1) Experimental objectives: To evaluate the druggability of the compounds by measuring pharmacokinetic properties in different animal species.\n(§2) Experimental materials: Sprague-Dawley strain rats, Beagle dogs, cynomolgus monkeys.\n(§3) The animal pharmacokinetic properties of the compound after intravenous injection and oral administration were tested by standard protocols, in which the candidate compound was prepared as a clear solution (intravenous injection) or as a homogeneous suspension (oral administration), and administered as a single dose to the animals. The vehicles for intravenous injection and oral administration are dimethyl sulfoxide and polyethylene glycol (15)-hydroxystearate aqueous solution in certain proportions. Whole blood samples were collected within 24 hours, centrifuged at 3200 g for 10 minutes, and the supernatant was separated to obtain plasma samples. Quantitative analysis of plasma concentrations was performed by LC-MS/MS analysis method, and pharmacokinetic parameters such as peak concentration, peak time, clearance rate, half-life, and area under the drug-time curve were calculated."}, "[4]": {"type": "in vivo, cynomolgus monkeys", "parameters": "Tmax: unit not given here", "conditions": "Monkey, PO, 1 mpk of 8B; concentration of 7B detected", "experimental": "as §1, §2, §3"}, "[5]": {"type": "in vivo", "conditions": "Mouse, PO, 10 mpk of 8B; concentration of 7B detected", "experimental": "as §1, §2, §3"}}, "note": "Read-outs that look alike come from different tables or passages of the source."}
{"smiles": "CN1C(=O)c2c(O)c(=O)ccn2N2C1CCOc1cc(F)c(F)cc1[C@H]2c1ccccc1", "note": "(stereo partly shown) [Compound 1A]", "values": [{"measurement": "EC50", "setting": "[1]; Influenza A virus, 120 h", "value": 22, "unit": "nM"}]}
{"smiles": "CN1C(=O)c2c(O)c(=O)ccn2N2[C@H](c3ccccc3Br)c3cc(F)c(F)cc3OCC[C@@H]12", "note": "[Compound 18A]", "values": [{"measurement": "EC50", "setting": "[1]; Influenza A virus, 120 h", "value": 11, "unit": "nM"}]}
{"smiles": "CN1C(=O)c2c(O)c(=O)ccn2N2[C@H](c3ccccc3)c3ccc(F)c(F)c3OCC[C@@H]12", "note": "[Compound 20A]", "values": [{"measurement": "EC50", "setting": "[1]; Influenza A virus, 120 h", "value": 50, "unit": "nM"}]}
{"smiles": "COC(=O)OCOc1c2n(ccc1=O)N1[C@H](c3ccccc3)c3cc(F)c(F)cc3OCC[C@H]1N(C)C2=O", "note": "[Compound 8B]", "values": [{"measurement": "Change in body weight (Percentage of starting body weight)", "setting": "[2]; Day 3", "value": "−6.6 ± 1.1 Percentage of starting body weight"}, {"measurement": "Survival rate", "setting": "[2]; Day 3", "value": 100, "unit": "%"}, {"measurement": "Change in body weight (Percentage of starting body weight)", "setting": "[2]; Day 4", "value": "−9.3 ± 0.8 Percentage of starting body weight"}, {"measurement": "Survival rate", "setting": "[2]; Day 4", "value": 100, "unit": "%"}, {"measurement": "Change in body weight (Percentage of starting body weight)", "setting": "[2]; Day 5", "value": "−8.9 ± 2.2 Percentage of starting body weight"}, {"measurement": "Survival rate", "setting": "[2]; Day 5", "value": 100, "unit": "%"}, {"measurement": "Change in body weight (Percentage of starting body weight)", "setting": "[2]; Day 6", "value": "−9.4 ± 1.9 Percentage of starting body weight"}, {"measurement": "Survival rate", "setting": "[2]; Day 6", "value": 100, "unit": "%"}, {"measurement": "Change in body weight (Percentage of starting body weight)", "setting": "[2]; Day 7", "value": "−7.7 ± 1.4 Percentage of starting body weight"}, {"measurement": "Survival rate", "setting": "[2]; Day 7", "value": 100, "unit": "%"}, {"measurement": "Change in body weight (Percentage of starting body weight)", "setting": "[2]; Day 8", "value": "−0.9 ± 0.8 Percentage of starting body weight"}, {"measurement": "Survival rate", "setting": "[2]; Day 8", "value": 100, "unit": "%"}, {"measurement": "Change in body weight (Percentage of starting body weight)", "setting": "[2]; Day 9", "value": "−0.5 ± 1.1 Percentage of starting body weight"}, {"measurement": "Survival rate", "setting": "[2]; Day 9", "value": 100, "unit": "%"}, {"measurement": "Change in body weight (Percentage of starting body weight)", "setting": "[2]; Day 10", "value": "0.5 ± 0.6 Percentage of starting body weight"}, {"measurement": "Survival rate", "setting": "[2]; Day 10", "value": 100, "unit": "%"}, {"measurement": "Change in body weight (Percentage of starting body weight)", "setting": "[2]; Day 11", "value": "2.5 ± 0.6 Percentage of starting body weight"}, {"measurement": "Survival rate", "setting": "[2]; Day 11", "value": 100, "unit": "%"}, {"measurement": "Change in body weight (Percentage of starting body weight)", "setting": "[2]; Day 12", "value": "2.9 ± 1.0 Percentage of starting body weight"}, {"measurement": "Survival rate", "setting": "[2]; Day 12", "value": 100, "unit": "%"}, {"measurement": "Change in body weight (Percentage of starting body weight)", "setting": "[2]; Day 13", "value": "2.4 ± 1.3 Percentage of starting body weight"}, {"measurement": "Survival rate", "setting": "[2]; Day 13", "value": 100, "unit": "%"}, {"measurement": "Change in body weight (Percentage of starting body weight)", "setting": "[2]; Day 14", "value": "2.7 ± 1.4 Percentage of starting body weight"}, {"measurement": "Survival rate", "setting": "[2]; Day 14", "value": 100, "unit": "%"}, {"measurement": "AUC", "setting": "[3]", "value": 0.724, "unit": "µM·h"}, {"measurement": "Cmax", "setting": "[3]", "value": 171, "unit": "nM"}, {"measurement": "T1/2", "setting": "[3]", "value": 4.4, "unit": "h"}, {"measurement": "Tmax", "setting": "[3]", "value": 0.75, "unit": "h"}, {"measurement": "AUC", "setting": "[4]", "value": 0.785, "unit": "µM·h"}, {"measurement": "Cmax", "setting": "[4]", "value": 163, "unit": "nM"}, {"measurement": "T1/2", "setting": "[4]", "value": 3.6, "unit": "h"}, {"measurement": "Tmax", "setting": "[4]", "value": 3}, {"measurement": "AUC", "setting": "[5]", "value": 0.93, "unit": "µM·h"}, {"measurement": "Cmax", "setting": "[5]", "value": 309, "unit": "nM"}, {"measurement": "T1/2", "setting": "[5]", "value": 1.3, "unit": "h"}, {"measurement": "Tmax", "setting": "[5]", "value": 1.2, "unit": "h"}]}
{"smiles": "CN1C(=O)c2c(O)c(=O)ccn2N2C1CCOc1cc(F)c(F)cc1[C@H]2c1ccc(F)cc1", "note": "(stereo partly shown) [Compound 9A]", "values": [{"measurement": "EC50", "setting": "[1]; Influenza A virus, 120 h", "value": 34, "unit": "nM"}]}
{"smiles": "CC(C)N1C(=O)c2c(O)c(=O)ccn2N2C1CCOc1ccccc1[C@H]2c1ccccc1", "note": "(stereo partly shown) [Compound 4A]", "values": [{"measurement": "EC50", "setting": "[1]; Influenza A virus, 120 h", "value": 74, "unit": "nM"}]}
{"smiles": "O=C1c2c(O)c(=O)ccn2N2[C@H](c3ccccc3)c3ccccc3OCC[C@H]2N1C1CCC1", "note": "[Compound 3A]", "values": [{"measurement": "EC50", "setting": "[1]", "value": 37, "unit": "nM"}]}
{"smiles": "O=C1c2c(O)c(=O)ccn2N2C(CCOc3cc(F)c(F)cc3[C@H]2c2ccccc2)N1C1CCC1", "note": "(stereo partly shown) [Compound 2A]", "values": [{"measurement": "EC50", "setting": "[1]; Influenza A virus, 120 h", "value": 13, "unit": "nM"}]}
